Measured values from patent publication US20230257355A1, “HYDROXAMIC ACID-CONTAINING COMPOUND, AND PREPARATION METHOD AND USE THEREOF” (CHINA PHARMACEUTICAL UNIVERSITY, priority 2020, published 2023).
pIC50: −log10 of the molar value.

What was measured:
[1] = test system: chronic depression rat model established by reserpine; test: Sucrose preference test (SPT) in reserpine chronic depression rat model; assay type: in vivo; conditions: rats
Procedure: (§1) In the present disclosure, a chronic depression rat model was established by reserpine (reference: NeurotoxRes, 2014, doi: 10.1007/s12640-013-9454-8). Specific experimental steps were as follows: In a normal group, 8 rats were randomly selected and raised normally. Rats in the remaining groups each were injected intraperitoneally with reserpine at 0.2 mg/kg once every day for three days. Rats in the remaining groups each were intraperitoneally injected with the compound I-1 at different doses (3 mg/kg, 6 mg/kg, and 12 mg/kg), a positive drug amitriptyline (6 mg/kg), or no drug. Two weeks after the administration, the OFT was performed (reference: China Pharmacy, 2016, 27 (19): 2697-2699), and after the OFT was completed, the SPT was performed. After the OFT was completed, all rats were first trained to drink 10 g/L sucrose-containing water. That is, tap water was replaced with 10 g/L sucrose-containing water within the first 48 h, then the water and food were deprived for 20 h, and then 10 g/L sucrose-containing water was provided for drinking and the drinking amount within 24 h was calculated.

[2] = test system: ApoE-knockout mice AS model; test: Plasma lipid indexes in ApoE-knockout AS mice; assay type: in vivo; conditions: versus non-administration Control group
Procedure: (§2) The mice were randomly divided into 6 groups, with 5 mice in each group. The groups were intraperitoneally injected respectively with a blank solvent, a blank solvent, 12 mg/kg compound I-1, and 40 mg/kg compound I-1 once every day for 8 weeks. After the experiment was completed, the animals were sacrificed and main arteries were collected.

[3] = test system: chronic depression rat model established by reserpine; test: Open field test (OFT) in reserpine chronic depression rat model; assay type: in vivo; conditions: rats
Procedure: as §1, with “performed.” for “performed. After the OFT was completed, all rats were first trained to drink 10 g/L sucrose-containing water. That is, tap water was replaced with 10 g/L sucrose-containing water within the first 48 h, then the water and food were deprived for 20 h, and then 10 g/L sucrose-containing water was provided for drinking and the drinking amount within 24 h was calculated.”

[4] = test system: ApoE-knockout mice AS model; test: Anti-AS effect: aortic plaque area in ApoE-knockout mice on high-fat diet; assay type: in vivo
Procedure: as §2, with “collected. The main arterial vessels were directly observed and photographed under a microscope. […] The collected arterial vessels were subjected to lipid staining with ORO and then photographed under a microscope, and image analysis was performed.” for “collected.”

ASM = biological target: T1, ASM (Homo sapiens, UniProt P17405); test: Inhibition of compounds on ASM activity (cell protein extract, fluorescently-labeled substrate); assay type: biochemical; conditions: for pIC50: protein extracted from cultivated cells, fluorescently-labeled substrate
T1 construct: A protein in cultivated cells was extracted, a buffer and a fluorescently-labeled reaction substrate were added; endogenous in cells
T1 sequence (P17405 47-631): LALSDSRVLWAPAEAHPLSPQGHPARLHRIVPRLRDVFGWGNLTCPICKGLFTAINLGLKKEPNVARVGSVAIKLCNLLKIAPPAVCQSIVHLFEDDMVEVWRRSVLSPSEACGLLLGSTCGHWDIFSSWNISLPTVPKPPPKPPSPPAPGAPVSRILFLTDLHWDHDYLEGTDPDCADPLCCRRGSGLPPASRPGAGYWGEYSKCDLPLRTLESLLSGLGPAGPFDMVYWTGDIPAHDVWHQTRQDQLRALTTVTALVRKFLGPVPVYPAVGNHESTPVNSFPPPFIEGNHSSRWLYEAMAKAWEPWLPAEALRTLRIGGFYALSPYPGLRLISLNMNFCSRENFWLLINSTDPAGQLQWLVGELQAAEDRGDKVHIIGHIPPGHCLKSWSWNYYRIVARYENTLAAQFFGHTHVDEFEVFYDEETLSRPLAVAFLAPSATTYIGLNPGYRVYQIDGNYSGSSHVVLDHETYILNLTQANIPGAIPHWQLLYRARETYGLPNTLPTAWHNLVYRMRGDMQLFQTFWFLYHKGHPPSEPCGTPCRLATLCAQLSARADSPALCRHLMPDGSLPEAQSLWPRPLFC
Procedure: ASM can hydrolyze sphingomyelin to produce ceramides in cells. For a specified amount of a fluorescently-labeled reaction substrate (Avanti Corporation, USA), different ASM activities catalyze the generation of a product at different amounts. Thus, an ASM activity level can be investigated by detecting a product content. The experiment design of the present disclosure is carried out according to the above principle.
A blank control group was set. After the reaction was completed, fluorescence analysis was performed, and finally an IC50 value of the compound was calculated.
A blank control group was set. After the reaction was completed, fluorescence analysis was performed.

[5] = i.p. 3, 6, 12 mg/kg, two weeks after administration

SMILES | pIC50 (ASM) | inhibition at 1 µM (ASM) [%] | inhibition at 10 µM (ASM) [%] | further results
O=C(NO)c1ccc2ncn(-c3ccc(OCc4ccc(Cl)cc4)cc3)c2c1 [Compound I-1, 1-(4-((4-chlorobenzyl)oxy)phenyl)-N-hydroxy-1H-benzo[d]imidazole-6-carboxamide] | 6.33 | – | – | SPT effect versus positive control amitriptyline (6 mg/kg) ([1]; high-dose 12 mg/kg i.p.): slightly lower than that of the positive control drug amitriptyline; SPT effect versus model group ([1]; high-dose 12 mg/kg i.p., p < 0.01): significantly different from that of the model group; SPT uptake capacity for sucrose-containing water ([1]; i.p., 10 g/L sucrose water, drinking amount within 24 h): significantly restored; HDL in plasma [2]: no impact; LDL level in plasma [2]: significantly increased; Total TG in plasma [2]: no impact; Total cholesterol in plasma [2]: no impact; OFT behavioral indexes versus amitriptyline (6 mg/kg) ([3]; high-dose 12 mg/kg i.p.): comparable to that of rats in the amitriptyline control group; OFT frequency of grooming [3, 5]: significantly improved; OFT frequency of upright [3, 5]: significantly improved; OFT times passing the grid [3, 5]: significantly improved; OFT total time in center [3, 5]: significantly improved; Plaque area of AS (ORO lipid staining) ([4]; 12 mg/kg i.p. once daily for 8 weeks): significantly reduce; Plaque area of AS (ORO lipid staining) ([4]; 40 mg/kg i.p. once daily for 8 weeks): significantly reduce; Aortic arch plaque area (direct microscopy) ([4]; i.p. once daily for 8 weeks, different doses (12 and 40 mg/kg)): significantly reduced
O=C(NO)c1ccc2ncn(-c3ccc(OCc4ccc(C(F)(F)F)cc4)cc3)c2c1 [Compound I-3] | 5.43 | – | – | –
O=C(NO)c1ccc2ncn(CCCOCc3ccc(C(F)(F)F)cc3)c2c1 [Compound I-5] | 5.56 | – | – | –
O=C(NO)c1ccc2ncn(-c3ccc(OCc4cccc(C(F)(F)F)c4)cc3)c2c1 [Compound I-6] | 5.91 | – | – | –
O=C(NO)c1ccc2ncn(-c3ccc(OCc4ccc(Cl)c(C(F)(F)F)c4)cc3)c2c1 [Compound I-7] | 6.41 | – | – | –
O=C(NO)c1ccc2ncn(-c3ccc(OCc4ccc(C(F)(F)F)cc4C(F)(F)F)cc3)c2c1 [Compound I-8] | 5.94 | – | – | –
O=C(NO)c1ccc2ncn(-c3ccc(OCc4cc(C(F)(F)F)cc(C(F)(F)F)c4)cc3)c2c1 [Compound I-9] | – | 80 | 93 | –
O=C(NO)c1ccc2ncn(-c3ccc(OCc4ccc(F)cc4)cc3)c2c1 [Compound I-10] | – | 20 | 50 | –
N#Cc1ccc(COc2ccc(-n3cnc4ccc(C(=O)NO)cc43)cc2)cc1 [Compound I-11] | – | 8 | 83 | –
COc1ccc(COc2ccc(-n3cnc4ccc(C(=O)NO)cc43)cc2)cc1 [Compound I-12] | – | 70 | 82 | –
O=C(NO)c1ccc2ncn(-c3ccc(OCc4ccccn4)cc3)c2c1 [Compound I-13] | – | 14 | 22 | –
O=C(NO)c1ccc2ncn(-c3ccc(OCc4ccc(C(F)(F)F)cn4)cc3)c2c1 [Compound I-14] | – | 24 | 76 | –
O=C(NO)c1ccc2ccn(-c3ccc(OCc4ccc(C(F)(F)F)cc4)cc3)c2c1 [II-1, 1-(4-((4-trifluoromethylbenzyl)oxy)phenyl)-N-hydroxy-1H-indole-6-carboxamide] | – | 74 | 91 | –
COc1ccc(COc2ccc(-n3ccc4ccc(C(=O)NO)cc43)cc2)cc1 [II-2, 1-(4-((4-methoxybenzyl)oxy)phenyl)-N-hydroxy-1H-indole-6-carboxamide] | – | 69 | 88 | –
